# According to US10335400B2, “Treatment of tauopathies with mGluR5 antagonists” (priority 2014, dated 2019):
# Experiments:
# PP2A [1] = experiment: i.c.v. infusion of BMAA in neonatal rats: PP2Ac Tyr307 phosphorylation and PP2A activity; format: in vivo, rat; conditions: i.c.v. BMAA 1.3 μmol
# Protocol: (§1) Wistar rats were bred and maintained under standard environmental conditions (12-h light/dark cycles, 22° C.) and were allowed free access to food and water. The animal experiments were carried out in strict compliance with protocols approved by the Animal Welfare Committee of New York State Institute for Basic Research in Developmental Disabilities. On postnatal d 2 (PND2), pups were individually cryo-anesthetized on ice, and 2 μL of 1.3 μmol BMAA in PBS was injected into lateral ventricle using a 10-μL Hamilton syringe (Hamilton Syringe Co.). Control animals were injected with PBS in an identical manner. After infusion of BMAA, rats were killed within 1, 24, 48, 72, or 96 h, and the brains were used for Western blots and PP2A activity assays.
# PP2A activity was assayed with homogenate of rat brain slices using the phosphatase ELISA described previously (5). Briefly, 96-well plates were precoated with a 17-aa phosphopeptide corresponding to tau amino acids 194-207 in which […] was replaced with phosphoserine and to which KKK were added at the C terminus (coating buffer, 35 mM NaHCO3). After overnight blocking with a protein-free blocking solution (Pierce), the enzymatic reaction was performed by adding 2 μg of cell lysate protein in 60 μL of reaction buffer [50 mM TrisHCl (pH 7.0), 2 mM MnCl2, 0.1 mg/mL BSA, 20 mM (β-mercaptoethanol] at 30° C. for 30 min (in the presence or absence of 15 nM of okadaic acid) in a moist chamber. The reaction was stopped by adding 150 μL of Pierce blocking solution containing 50 mM NaF, followed by an overnight incubation with monoclonal antibody Tau-1, which recognizes tau unphosphorylated at Ser^198, Ser^199, and Ser^202. HRP-conjugated secondary antibody treatment was for 60 min at room temperature. Finally 75 μL of 3,3′,5,5′-Tetramethylbenzidine substrate reagent (Sigma) was added, and the colorimetric development was measured using a microtiter plate reader at a wavelength of 650 nm.
# Protein was fractionated by 10% SDS/PAGE, transferred to PVDF membrane, and then blocked with 5% skim milk for 1 h at room temperature. […] The protein bands were detected with the enhanced chemiluminescence reagents (Thermo Scientific). Band intensity was measured by Multi-Gauge V3 software (Fuji Photo Film).
# motor neurons = conditions: cited from earlier work
# PP2A [2] = experiment: PP2A activity (phosphatase ELISA) and PP2Ac protein level in BMAA-treated mouse mixed primary neuronal cultures; format: cell-based; conditions: BMAA 100 μM to 1 mM, 3-48 h
# Protocol: Mouse hippocampal neuronal cultures were prepared from d 18 embryos as previously described (1). Briefly, C57BL/6 pregnant female mice from Charles River Laboratories were killed by cervical dislocation. All studies were performed in accordance with the recommendations in the Guide for the Care and Use of Laboratory Animals of the National Institutes of Health (2). The protocol was approved by Institutional Animal Care and Use Committee of the New York Institute for Basic Research in Developmental Disabilities. All surgeries were performed under anesthesia, and all efforts were made to minimize suffering. Embryos were removed and placed in cold Hibernate A (BrainBits, LLC), and all the following steps were performed in ice-cold Hibernate A, under a stereoscopic (dissection) microscope placed in a laminar flow hood. Fetal brains were removed carefully, and forebrains were separated. The hippocampus, including the cortex surrounding the area of the hippocampus, was dissected and cut into small pieces using microsurgical scissors. […]
# PP2A activity was assayed with homogenate of rat brain slices using the phosphatase ELISA described previously (5). […] Finally 75 μL of 3,3′,5,5′-Tetramethylbenzidine substrate reagent (Sigma) was added, and the colorimetric development was measured using a microtiter plate reader at a wavelength of 650 nm. […]
# tau = experiment: i.c.v. infusion of BMAA in neonatal rats: hyperphosphorylation of tau; format: in vivo, rat; conditions: i.c.v. BMAA 1.3 μmol
# Protocol: as §1
# Protein was fractionated by 10% SDS/PAGE, transferred to PVDF membrane, and then blocked with 5% skim milk for 1 h at room temperature. The membrane was probed with anti-IPP2A (5G6, 1:1, 500) (7), anti-I2P2A (10E7, 1:1, 600) (7), anti-tau ˜92e; 1:5,000) (8), anti-tau (R134d; 1:5 000) (9), anti-tau pSer^262/^356 (12E8; 1:500) (10, anti-tau pSer^199, anti-tau pThr^205, anti-tau pThr^212, and pSer^396 (1:1,000) (Biosource), anti-GAPDH (1:2,000) (Santa Cruz Biotechnology), anti-PP2Ac (1:10 000) (BD Transduction Lab), anti pY^307-PP2A and anti-DML^309-PP2A (1:1,000) (Millipore), anti-GSK-3(α/β), anti-pS^9-GSK-3 β, anti-ERK1/2, anti-pT^202/Y^204-ERK1/2, anti-MEK1/2, anti-p9^17/221-MEK1/2, anti-CAMKII, anti-pT^286-CAMKII, anti-p70 S6 kinase, anti-pT^389-p70 S6 kinase, anti-SAPK/JNK, and anti-pT^183/Y^185-SAPK/JNK (1:1,000) (Cell Signaling Technology). The membrane then was incubated with HRP-conjugated secondary antibody (Jackson ImmunoResearch). The protein bands were detected with the enhanced chemiluminescence reagents (Thermo Scientific). Band intensity was measured by Multi-Gauge V3 software (Fuji Photo Film).
structure (smiles),measurement,setting,value
"CNC[C@H](N)C(=O)O [BMAA, β-N-methylamino-L-alanine]",PP2A activity in rat brain,PP2A [1],decreased
same,time at which the decrease in PP2A activity was most significant,PP2A [1],48 h
same,time by which pTyr307-PP2Ac decreased to a normal level,PP2A [1],72-96 h
same,level of phosphorylation of PP2Ac at Tyr307 in rat brains,PP2A [1]; for 24-48 h,increased markedly
same,BMAA concentration causing selective death of motor neurons,motor neurons,≥ 30 µM
same,PP2A activity,PP2A [2],significantly decreased
same,time of peak hyperphosphorylation of tau at Ser262/356,tau,24 to 48 h
same,time of peak hyperphosphorylation of tau at Thr212,tau,24 to 48 h
same,time of peak phosphorylation of tau at Ser199,tau,72 to 96 h
same,time of peak phosphorylation of tau at Ser396,tau,72 to 96 h
same,time of peak phosphorylation of tau at Thr205,tau,72 to 96 h
